Patent US4268664A, “Process for the preparation of 1-N-isoseryl- or 1-N-(L-4-amino-2-hydroxybutyryl)-3',4'-dideoxykanamycin B and intermediates thereof” (Zaidan Hojin Biseibutsu Kagaku Kenkyu Kai, priority 1978, dated 1981)

Legend:
various microorganisms = assay: antimicrobial activity (in words); assay type: cell-based
Protocol: The minimum inhibitory concentrations (mcg/ml) of the compounds tested against various microorganisms were determined according to a serial dilution method using nutrient agar medium at 37° C., the estimation being effected after 20 hours-incubation.

[1] = test system: drug-resistant microbial strains including Pseudomonas aeruginosa; conditions: cited from earlier work
[2] = test system: kanamycin-resistant microbial strains including Pseudomonas aeruginosa; conditions: cited from earlier work

For `NCC1C=CC(N)C(OC2C(N)CC(NC(=O)C(O)CN)C(OC3OC(CO)C(O)C(N)C3O)C2O)O1` (stereo not drawn) [1-N-isoseryl-3',4'-dideoxy-3',4'-didehydrokanamycin B], the antimicrobial activity (various microorganisms) was “high antimicrobial activity”.
In the case of `NCC1CCC(N)C(OC2C(N)CC(NC(=O)C(O)CN)C(OC3OC(CO)C(O)C(N)C3O)C2O)O1` (stereo not drawn) [1-N-isoseryl-3',4'-dideoxykanamycin B], the “activity against a wide variety of drug-resistant microbial strains” value [1] is given as “high activity”.
In the case of `NCC1CCC(N)C(OC2C(N)CC(N)C(OC3OC(CO)C(O)C(N)C3O)C2O)O1` (stereo not drawn) [3',4'-Dideoxykanamycin B], the “activity against kanamycin-resistant microbial strains” value [2] is given as “high activity”.
